# Results as given in patent US20090036382A1, “TGF-Beta Modulators and Use Thereof” (Universita' Degli Studi Di Padova, priority 2006, published 2009).
# Assays:
# pro TGF-β1 = assay: Western blot of culture medium of MEF (-/- or +/+) transfected with Flag-proTGF-β1; assay type: cell-based, mouse; settings: anti-Flag / anti-LAP, FIG. 5C
# Experimental: In a subsequent experiment, Mouse Embryo Fibroblasts (MEF) derived from ko (−/−) or wild type (+/+) mice were transfected with a plasmid encoding Flag-proTGF-β1; the Furin inhibitor decanoyl-RVKR-CMK was added to the indicated samples. The culture medium was then subjected to western blotting with anti-Flag (FIG. 5C, upper inset) or anti-LAP (middle inset) antibody. […] To control the expression levels, western blot (in the lower inset) with an anti-β gal antibody was developed instead.
# pro TGF-β1 processing = target: T1, pro TGF-β1 processing (Homo sapiens, UniProt P01137); assay: Western blot of pro TGF-β1 conversion to LAP and mature TGF-β1 in transfected HEK293T cells; assay type: cell-based; settings: HEK293T supernatant, anti-TGF-β1 Western-blot, emilin-1 cotransfected, peptide at 100 μM
# T1 construct: Flag; expressed in transfected cells; host or cells: HEK293T (A6); mouse embryo fibroblasts (A8)
# T1 sequence (P01137 30-390): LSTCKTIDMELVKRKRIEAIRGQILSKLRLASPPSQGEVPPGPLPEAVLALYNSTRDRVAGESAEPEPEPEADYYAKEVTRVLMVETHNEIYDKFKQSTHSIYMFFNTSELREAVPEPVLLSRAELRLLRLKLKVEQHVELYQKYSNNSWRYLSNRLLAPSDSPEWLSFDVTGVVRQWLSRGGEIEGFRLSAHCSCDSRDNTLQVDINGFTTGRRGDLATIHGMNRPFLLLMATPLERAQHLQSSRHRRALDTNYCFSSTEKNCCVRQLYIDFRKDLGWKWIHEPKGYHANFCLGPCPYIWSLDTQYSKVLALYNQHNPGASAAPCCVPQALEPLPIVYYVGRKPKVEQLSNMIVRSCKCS
# From the text: • The construct for emilin 1 expression was engineered in pCS2 vector (Rupp R. A. et al., 1994, Genes Dev 8, 1311-1323) (for a physical map of the vector, see the site faculty.washington.edu/rtmoon/pcs2+.html) as described (Zanetti M. et al., 2004, Mol Cell Biol 24, 638-650); the vector used for proTGF-β expression in MEF and HEK293T cells is pCDNA3.1 (Invitrogen). Vectors containing the coding sequence for human pro TGF-β are described in Young and Murphy-Ullrich, 2004 (Young and Murphy-Ullrich, 2004, J Biol Chem 279, 38032-38039). The human pro TGF-β cDNA sequence is reported in the data bank (NP_000660; protein 000651). • The vector for Furin/SPC 1 expression is pCDNA3.1 (Invitrogen) • p15 and CAGA 12 promoter fragments are described in Jonk L. J. et al., 1998, J Biol Chem 273, 21145-21152 […]. • Constructs containing Flag sequences are described in Young G. D and Murphy-Ullrich J E, 2004, J Biol Chem 279, 38032-38039. • Constructs containing the Flag epitope (e.g. Flag-EMI-domain-GPI) were prepared as described in Chubet R G et al. Biotechniques 1996; 20(1):136-141 and detected by anti-Flag antibody (Kodak Inc.). • Constructs containing the GPI anchor were prepared as described in the Manual “Current Protocols in Cell Biology” Howard R. Petty Wayne State University, Detroit, Mich.; Juan S. Bonifacino, Mary Dasso, Joe B. Harford, Jennifer Lippincott-Schwartz, and Kenneth M. Yamada (eds.), Copyright C 2003 John Wiley & Sons, Inc. (GPI-anchor). In the construct Flag-EMI domain-GPI, the Flag sequence was inserted at the N-terminus after the signal peptide, while the GPI-anchor sequence was placed at the COOH-terminal end. • The construct emilin 1-KDEL was obtained by inserting the KDEL coding sequence described by Munro S., and Pelham, H. R., 1987, Cell 48, 899-907 upstream the emilin 1 STOP codon. • The construct containing the type II TGF-β receptor with HA epitope was described in Wrana J. L. et al., 1994, Nature 370, 341-347. • supplier of the drugs used: SP600125 (Calbiochem), SB431542 (Tocris). • Purified recombinant LAP and TGF-β1 proteins were purchased from (R&D Systems)
# To verify whether emilin or its EMI domain inhibit TGF-β or its precursor, HEK293T cells were cotransfected with plasmids driving the expression of pro TGF-β1 (fused to the FLAG-domain, even though the antibody used were directed at LAP and TGF-β proteins) and emilin-1 (or EMI-domain). […] The anti-Flag antibody used was obtained from Kodak Inc; for the preparation of Flag constructs, see Younjg and Murphy-Ullrich (Young and Murphy-Ullrich, 2004).
# As reported in the summary scheme above FIG. 5A, HEK293T cells were transfected with the plasmid encoding pro TGF-β1 (lane 1) and cotransfected with emilin-1 (lane 3) or treated with decanoyl-RVKR-CMK peptide (Decanoyl-Arg-Val-Lys-Arg-chloromethylketone, Alexis Corporation, Lausen, Switzerland) (lane 2) at a concentration of 100 μM. The peptide is an irreversible and competitive inhibitor of furin proprotein convertase and of other SPC family members (Proprotein Convertase); in addition, it inhibits pro-MMP2 dependent furin activation. The supernatant was then loaded on SDS-PAGE and detected by Western-blot with anti-TGF-β1 antibody. […] An increase of the precursor band in lanes 2 and 3 is […] to the decrease of TGF-β. Therefore it can be concluded that this assay detects an effect of emilin-1 on TGF-β1 processing that is similar to the effect of Furin inhibitors.
substance,measurement,setting,value
"Decanoyl-Arg-Val-Lys-Arg-chloromethylketone [decanoyl-RVKR-CMK, reference compound]",pro TGF-β1 levels in culture medium,pro TGF-β1,results in increased pro TGF-β1 levels
same,Intensity of the band corresponding to mature TGF-β1,pro TGF-β1 processing; FIG. 5A,decreases
same,Precursor (pro TGF-β) band,pro TGF-β1 processing; FIG. 5A lanes 2 and 3,increase
